Measured values reported in ChEMBL document CHEMBL1123460, “Synthesis and biochemical properties of 8-amino-6-fluoro-9-beta-D-ribofuranosyl-9H-purine” (J Med Chem, 1986).

Tests used:
L1210 [1] = experiment: Compound was evaluated for the cytotoxicity against L1210 cells in absence of coformycin; format: functional, cell-based; conditions: Mus musculus
L1210 [2] = experiment: Compound was evaluated for the cytotoxicity against L1210 cells in presence of coformycin; format: functional, cell-based; conditions: Mus musculus
[3] = Compound was evaluated for the apparent Km value.; format: ADME
L1210 [4] = experiment: Compound was evaluated for the cytotoxicity against L1210 cells.; format: functional, cell-based; conditions: Mus musculus
HEp-2 = experiment: Compound was evaluated for the cytotoxicity against H.Ep.-2 cells.; format: functional, cell-based; conditions: Homo sapiens

| Km [3] | SMILES | IC50 (L1210 [1]) | IC50 (L1210 [2]) | IC50 (L1210 [4]) | IC50 (HEp-2) |
| --- | --- | --- | --- | --- | --- |
|  | OC[C@H]1O[C@@H](n2cnc3c2N=CNC[C@H]3O)C[C@@H]1O [PENTOSTATIN] | 1900 nM | 250 nM |  |  |
| 1000 µM | Nc1nc2c(F)ncnc2n1C1O[C@H](CO)[C@@H](O)[C@H]1O (stereo partly specified) |  |  | 1900 nM | 1800 nM |
| 29 µM | Nc1ncnc2c1ncn2[C@@H]1O[C@H](CO)[C@@H](O)[C@H]1O [ADENOSINE] |  |  |  |  |
